Data reported in patent US20240360113A1, “AMINOARYL-INTEGRIN AGONISTS COMPOUNDS” (Texas Heart Institute, priority 2021, published 2024).

Columns and labels:
[1] = target: T1, α4β1/VCAM-1 (Homo sapiens, UniProt P05556+P13612); experiment: Static cell adhesion assay, Jurkat cells on VCAM-1 (VLA-4 agonist activity); type: cell-based; details: EC50 relative to THI0349 (average 11 uM) run on the same plate; Jurkat cells, 50% FBS
T1 construct: The Jurkat (VCAM-1 assays) and HSB (ICAM-1 assays) cell lines were obtained from American Type Culture Collection; endogenous in cells; host or cells: Jurkat (ATCC)
T1 sequence (P13612 34-1032): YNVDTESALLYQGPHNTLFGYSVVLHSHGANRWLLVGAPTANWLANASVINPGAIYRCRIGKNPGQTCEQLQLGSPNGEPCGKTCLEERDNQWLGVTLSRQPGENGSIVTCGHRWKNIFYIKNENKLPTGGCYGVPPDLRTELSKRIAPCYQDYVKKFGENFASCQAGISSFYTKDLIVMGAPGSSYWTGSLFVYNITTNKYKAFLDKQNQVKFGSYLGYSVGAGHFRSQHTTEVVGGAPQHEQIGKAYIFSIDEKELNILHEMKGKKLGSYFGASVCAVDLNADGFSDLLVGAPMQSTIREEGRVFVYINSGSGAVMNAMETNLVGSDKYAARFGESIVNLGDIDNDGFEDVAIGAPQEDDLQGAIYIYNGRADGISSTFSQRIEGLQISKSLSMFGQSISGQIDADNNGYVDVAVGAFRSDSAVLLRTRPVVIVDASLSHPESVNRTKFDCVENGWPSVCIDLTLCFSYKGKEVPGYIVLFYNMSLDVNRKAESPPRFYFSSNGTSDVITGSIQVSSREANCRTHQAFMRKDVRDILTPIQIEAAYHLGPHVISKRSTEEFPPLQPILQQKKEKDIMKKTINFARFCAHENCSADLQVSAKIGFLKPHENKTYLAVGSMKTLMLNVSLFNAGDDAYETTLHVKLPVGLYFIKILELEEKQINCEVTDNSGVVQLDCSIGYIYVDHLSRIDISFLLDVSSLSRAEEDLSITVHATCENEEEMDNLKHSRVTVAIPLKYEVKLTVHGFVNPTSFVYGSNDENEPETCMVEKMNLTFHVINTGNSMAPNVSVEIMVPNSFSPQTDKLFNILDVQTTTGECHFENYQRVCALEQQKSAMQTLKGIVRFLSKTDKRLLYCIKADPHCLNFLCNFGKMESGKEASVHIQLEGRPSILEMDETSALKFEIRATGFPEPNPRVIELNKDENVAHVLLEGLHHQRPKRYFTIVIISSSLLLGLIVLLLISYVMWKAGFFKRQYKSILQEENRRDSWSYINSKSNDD
T1 sequence (P05556 21-798): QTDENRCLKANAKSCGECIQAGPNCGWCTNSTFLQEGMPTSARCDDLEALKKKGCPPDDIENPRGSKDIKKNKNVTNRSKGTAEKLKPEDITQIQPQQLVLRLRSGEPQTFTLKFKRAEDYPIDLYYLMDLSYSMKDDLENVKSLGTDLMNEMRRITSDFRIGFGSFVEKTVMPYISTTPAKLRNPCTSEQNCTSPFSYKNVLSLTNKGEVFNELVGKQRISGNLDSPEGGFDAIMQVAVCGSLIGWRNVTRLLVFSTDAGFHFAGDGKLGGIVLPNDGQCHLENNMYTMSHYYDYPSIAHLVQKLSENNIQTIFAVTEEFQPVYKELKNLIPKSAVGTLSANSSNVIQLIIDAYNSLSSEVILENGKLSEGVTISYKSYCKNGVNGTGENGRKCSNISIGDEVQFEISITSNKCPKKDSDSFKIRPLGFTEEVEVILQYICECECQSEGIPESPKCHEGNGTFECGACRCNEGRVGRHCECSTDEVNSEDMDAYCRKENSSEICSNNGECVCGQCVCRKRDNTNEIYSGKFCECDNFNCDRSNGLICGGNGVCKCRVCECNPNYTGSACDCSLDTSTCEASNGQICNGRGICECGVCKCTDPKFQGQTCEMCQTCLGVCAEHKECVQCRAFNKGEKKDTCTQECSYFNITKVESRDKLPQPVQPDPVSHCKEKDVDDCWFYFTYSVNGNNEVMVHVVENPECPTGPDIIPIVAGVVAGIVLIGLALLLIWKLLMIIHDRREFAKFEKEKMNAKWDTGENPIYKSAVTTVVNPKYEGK
Method in brief: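 Calcein-labelled Jurkat cells (2×10^5/well) were added to wells coated with a sub-optimal level of human VCAM-1 (0.5 μg/mL) in PBS, 1 mM MgCl2, 50% FBS with compound in 1% DMSO. After 30 min at 37° C. and washing, adherent-cell fluorescence was read. EC50 was the concentration giving 50% of maximal response.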

[2] = target: T2, αLβ2/ICAM-1 (Homo sapiens, UniProt P05107+P20701); experiment: Static cell adhesion assay, HSB cells on ICAM-1 (LFA-1; LAD); type: cell-based; details: RFU of compound / RFU of THI0349, both at the same concentration
T2 construct: The Jurkat (VCAM-1 assays) and HSB (ICAM-1 assays) cell lines were obtained from American Type Culture Collection; endogenous in cells; host or cells: HSB (ATCC)
T2 sequence (P20701 26-1170): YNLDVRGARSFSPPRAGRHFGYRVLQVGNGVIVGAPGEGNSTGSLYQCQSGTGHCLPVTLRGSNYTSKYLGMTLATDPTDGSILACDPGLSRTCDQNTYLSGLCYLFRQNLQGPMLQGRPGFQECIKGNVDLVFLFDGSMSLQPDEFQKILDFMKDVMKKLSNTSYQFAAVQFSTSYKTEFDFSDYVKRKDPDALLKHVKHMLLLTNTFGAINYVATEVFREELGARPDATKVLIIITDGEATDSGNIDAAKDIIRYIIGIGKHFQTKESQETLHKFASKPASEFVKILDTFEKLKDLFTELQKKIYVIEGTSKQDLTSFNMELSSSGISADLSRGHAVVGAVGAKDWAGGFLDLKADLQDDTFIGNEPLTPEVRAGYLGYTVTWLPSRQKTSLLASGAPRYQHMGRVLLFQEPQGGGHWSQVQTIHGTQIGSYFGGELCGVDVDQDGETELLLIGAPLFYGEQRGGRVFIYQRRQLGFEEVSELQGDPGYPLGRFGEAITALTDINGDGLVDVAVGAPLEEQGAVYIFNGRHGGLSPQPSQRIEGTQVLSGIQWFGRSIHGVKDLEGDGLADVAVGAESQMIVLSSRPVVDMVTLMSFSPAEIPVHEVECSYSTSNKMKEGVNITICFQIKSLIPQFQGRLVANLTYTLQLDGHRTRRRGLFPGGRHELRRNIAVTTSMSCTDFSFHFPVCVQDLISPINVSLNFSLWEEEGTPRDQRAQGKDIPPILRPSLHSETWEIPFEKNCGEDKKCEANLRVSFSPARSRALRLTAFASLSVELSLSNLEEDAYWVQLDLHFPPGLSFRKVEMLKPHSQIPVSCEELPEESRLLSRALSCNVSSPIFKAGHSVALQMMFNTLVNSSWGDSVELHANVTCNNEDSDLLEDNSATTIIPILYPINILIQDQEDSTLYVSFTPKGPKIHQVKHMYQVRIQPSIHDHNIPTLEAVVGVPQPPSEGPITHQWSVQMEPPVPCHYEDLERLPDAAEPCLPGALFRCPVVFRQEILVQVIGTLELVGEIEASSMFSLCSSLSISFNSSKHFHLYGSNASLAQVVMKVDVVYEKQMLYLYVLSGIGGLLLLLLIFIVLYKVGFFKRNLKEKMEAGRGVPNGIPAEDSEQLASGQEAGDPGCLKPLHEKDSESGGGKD
T2 sequence (P05107 23-769): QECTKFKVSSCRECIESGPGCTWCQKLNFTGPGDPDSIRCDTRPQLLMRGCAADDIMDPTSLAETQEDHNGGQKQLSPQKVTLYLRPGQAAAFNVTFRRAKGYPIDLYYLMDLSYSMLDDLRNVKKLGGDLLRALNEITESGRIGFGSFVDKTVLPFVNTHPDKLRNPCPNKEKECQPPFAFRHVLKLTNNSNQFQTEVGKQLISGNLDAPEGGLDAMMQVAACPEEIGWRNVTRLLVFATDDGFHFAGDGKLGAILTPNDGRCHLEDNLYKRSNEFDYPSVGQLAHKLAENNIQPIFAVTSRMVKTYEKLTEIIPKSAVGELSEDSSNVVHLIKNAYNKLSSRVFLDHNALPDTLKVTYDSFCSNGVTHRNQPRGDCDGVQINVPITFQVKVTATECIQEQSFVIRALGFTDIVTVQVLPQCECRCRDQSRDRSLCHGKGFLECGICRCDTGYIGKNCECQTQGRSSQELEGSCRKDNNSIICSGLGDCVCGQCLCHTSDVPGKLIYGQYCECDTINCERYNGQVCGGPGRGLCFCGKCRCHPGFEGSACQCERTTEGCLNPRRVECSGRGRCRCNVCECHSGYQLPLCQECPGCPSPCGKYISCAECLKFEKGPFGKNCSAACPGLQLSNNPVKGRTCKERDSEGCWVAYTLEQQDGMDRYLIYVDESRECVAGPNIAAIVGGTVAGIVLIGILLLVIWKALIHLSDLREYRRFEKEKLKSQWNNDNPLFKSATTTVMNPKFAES
Method in brief: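 HSB cells were labeled with calcein-AM for 30 minutes, washed, resuspended in binding buffer (PBS with 2 mM MgCl2, 5 mM EGTA, 50% FBS) and plated at 2×10^5 cells/well in triplicate onto 96-well plates coated overnight at 4° C with ICAM-1 (5 μg/mL in 50 μL TBS) and blocked with 2% BSA. Compounds were tested in 1% DMSO. After 30 minutes at 37° C and three washes, adherent cells were lysed and fluorescence was read; results are compound RFU divided by THI0349 RFU.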

| LAD Raw Fluorescence Units against LFA-1; Dose 3 µM; Ratio of raw counts Compound/THI0349 [2] | SMILES | Group against VCAM [1] |
| --- | --- | --- |
| 0.03 | COc1cccc(CN(Cc2ccc(-n3cccn3)cc2)c2nc(C)cs2)c1 [Compound 98, N-(4-(1H-pyrazol-1-yl)benzyl)-N-(3-methoxybenzyl)-4-methylthiazol-2-amine] | III (Group III more than five times the EC50 of THI0349) |
| 0.6 | COc1cccc(COc2cccc(N(Cc3cccc(OC)c3)Cc3cccc(OC)c3)c2)c1 [Compound 92, N,N-bis(3-methoxybenzyl)-3-((3-methoxybenzyl)oxy)aniline] | III (Group III more than five times the EC50 of THI0349) |
| 0.85 | COc1ccc(CCCNC(=O)c2csc(N(Cc3cccc(OC)c3)Cc3cccc(OC)c3)n2)cc1 [Compound 23, 2-(bis(3-methoxybenzyl)amino)-N-(3-(4-methoxyphenyl)propyl)thiazole-4-carboxamide] | I (Group I maintains at least the same potency or better up to more than twice that of the EC50 of THI0349 ran on the same plate) |
| 0.5 | CCOC(=O)c1csc(N(Cc2cccc(OC)c2)Cc2cccc(OC)c2)n1 [Compound 102, ethyl 2-(bis(3-methoxybenzyl)amino)thiazole-4-carboxylate] | II (Group II is more than twice that of THI0349 but less than five times THI0349's EC50) |
| 0.05 | COc1cccc(CN(C)c2nc(C)cs2)c1 [Compound 100, N-(3-methoxybenzyl)-N,4-dimethylthiazol-2-amine] | III (Group III more than five times the EC50 of THI0349) |
| 0.09 | CCOC(=O)c1ccc(N(Cc2cccc(OC)c2)Cc2cccc(OC)c2)nc1 [Compound 95, ethyl 6-(bis(3-methoxybenzyl)amino)nicotinate] | III (Group III more than five times the EC50 of THI0349) |
| 0.34 | COc1cccc(COCc2ccc(N(Cc3cccc(OC)c3)Cc3cccc(OC)c3)cc2)c1 [Compound 89, N,N-bis(3-methoxybenzyl)-4-((3-methoxybenzyloxy)methyl)aniline] | III (Group III more than five times the EC50 of THI0349) |
| 0.53 | COc1cccc(CN(Cc2cccc(-n3cccn3)c2)c2nc(CN3CCOCC3)cs2)c1 [Compound 80, N-(3-(1H-pyrazol-1-yl)benzyl)-N-(3-methoxybenzyl)-4-(morpholinomethyl)thiazol-2-amine] | I (Group I maintains at least the same potency or better up to more than twice that of the EC50 of THI0349 ran on the same plate) |
| 0.16 | COc1cccc(COCc2csc(N(Cc3cccc(OC)c3)Cc3cccc(OC)c3)n2)c1 [Compound 38, N,N-bis(3-methoxybenzyl)-4-((3-methoxybenzyloxy)methyl)thiazol-2-amine] | III (Group III more than five times the EC50 of THI0349) |
| 0.14 | COc1cccc(CN(Cc2cccc(OC)c2)c2nc3c(s2)CN(C(=O)OC(C)(C)C)CC3)c1 [Compound 70, tert-butyl 2-(bis(3-methoxybenzyl)amino)-6,7-dihydrothiazolo[5,4-c]pyridine-5(4H)-carboxylate] | III (Group III more than five times the EC50 of THI0349) |
| 0.36 | COc1cccc(CN(Cc2cccc(OC)c2)c2nc(CN3CCOCC3)co2)c1 [Compound 81, N,N-bis(3-methoxybenzyl)-4-(morpholinomethyl)oxazol-2-amine] | II (Group II is more than twice that of THI0349 but less than five times THI0349's EC50) |
| 0.09 | COc1cccc(COc2ccc(N(Cc3cccc(OC)c3)Cc3cccc(OC)c3)cc2)c1 [Compound 91, N,N-bis(3-methoxybenzyl)-4-((3-methoxybenzyl)oxy)aniline] | III (Group III more than five times the EC50 of THI0349) |
| 0.88 | COc1cccc(CN(Cc2cccc(OC)c2)c2nc(C)cs2)c1 [Compound 29, N,N-bis(3-methoxybenzyl)-4-methylthiazol-2-amine] | III (Group III more than five times the EC50 of THI0349) |
